According to patent US5116815A, “PF 1022 substance, method of treating helminthic parasitic infection and anthelmintic composition” (Meiji Seika Kaisha Ltd., priority 1989, dated 1992):
“And” between values parts separate entries of the source, which are not always exact repeats. Identical values can stand only once.

Assays:
[1] = test system: whipworms (Trichuris suis); test: Anthelmintic activity against swine whipworms; assay type: in vivo; conditions: oral in feed; for Number of remaining worms: autopsy one week; for EPG Before administration: baseline; for EPG Upon autopsy: one week
Procedure: The PF 1022 substance was evaluated for its anthelmintic effect on swine whipworms by orally administering it to swine found to be infected with whipworms (Trichuris suis) by scatoscopy.
The PF 1022 substance was administered either once at 1 mg/kg, 5 mg/kg or 10 mg/kg, or at a daily dose of 2.5 mg/kg or 5 mg/kg once daily for 2 consecutive days by admixing an amount of the substance as such equal to each dose with a small portion of the ordinary feed. After administration, the number of whipworm eggs in the feces of each animal was determined daily in terms of EPG. In three animals, the worms eliminated were counted as well. One week after initiation of administration, all the animals were sacrificed and autopsied and the worms remaining in the intestinal tract were counted.

[2] = Classification by basicity, acidity or neutrality; assay type: physicochemical
[3] = test system: feline hookworms (Ancylostoma tubaeforme); test: Anthelmintic activity against cat hookworms; assay type: in vivo; conditions: cats
Procedure: The PF 1022 substance was evaluated for its anthelmintic effect on feline hookworms (Ancylostoma tubaeforme) by orally administering the substance once to 12 cats found to be infected with said worms by scatoscopy.
The infected cats were divided into three groups of 4 animals and respectively given 0.2 mg/kg, 1 mg/kg and 5 mg/kg of the substance admixed as such with a small portion of the ordinary feed. The observation items were the number of worms eliminated during 7 days following administration and the number of remaining worms found upon autopsy 7 days after administration.

[4] = test system: bovine twisted stomach worms (Haemonchus contortus); test: In vitro test tube motility test on bovine twisted stomach worms; conditions: physiological salt solution, 39-40 C
Procedure: The PF 1022 substance was evaluated for its anthelmintic activity by adding it to test tubes in which bovine twisted stomach worms (Haemonchus contortus) isolated from the bovine fourth stomach were swimming.
A physiological salt solution was distributed into 4 test tubes and warmed to 39°-40° C. Three to five twisted stomachworms collected from the bovine fourth stomach were put into the medium in each test tube and allowed to swim therein. An appropriate amount of the PF 1022 substance was dissolved in a small amount of dimethyl sulfoxide and the solution was added dropwise to the medium and, after stirring for admixing, the behavior of each worm was observed. The amount of the PF 1022 substance was adjusted so that the final concentrations in the culture medium in three tubes amounted to 2 ppm, 8 ppm and 40 ppm, respectively. Dimethyl sulfoxide alone was added dropwise to the remaining test tube, which served as a control.

[5] = test system: feline roundworms (Toxocara cati); test: Anthelmintic activity against cat large intestinal roundworms; assay type: in vivo; conditions: cats
Procedure: The PF 1022 substance was evaluated for its anthelmintic effect on feline roundworms (Toxocara cati) by orally administering the substance once to 12 cats found to be infected with the roundworms by scatoscopy.
The infected cats were used in three groups of 4 animals and given 0.2 mg/kg, 1 mg/kg and 5 mg/kg of the substance, respectively, admixed as such with a small portion of ordinary feed. The observation items were the number of roundworms eliminated during the 7 day observation period following administration and the number of remaining roundworms as found upon autopsy performed 7 days after administration.

Ames test = assay type: cell-based
[6] = Oral toxicity in mice (body weight gain, abnormalities); assay type: in vivo; conditions: 300 mg/kg
[7] = 2 administrations, 2.5 mg/kg/administration
[8] = 2 administrations, 5 mg/kg/administration
[9] = single oral dose 1 mg/kg, 1 mg/kg
[10] = single oral dose 5 mg/kg, autopsy 7 days

## CC(C)C[C@H]1C(=O)O[C@H](Cc2ccccc2)C(=O)N(C)[C@@H](CC(C)C)C(=O)O[C@H](C)C(=O)N(C)[C@@H](CC(C)C)C(=O)O[C@H](Cc2ccccc2)C(=O)N(C)[C@@H](CC(C)C)C(=O)O[C@H](C)C(=O)N1C [PF 1022 substance]
[1]; 1 administration, 1 mg/kg
  % Elimination: 4.0%
  Number of worms eliminated: 14
  Number of remaining worms: 334
  EPG Before administration: 5500
  EPG Upon autopsy: 1200
[1]; 1 administration, 10 mg/kg
  % Elimination: 100%
  Number of remaining worms: 0
  EPG Before administration: 1800
  EPG Upon autopsy: 0
[1]; [7]
  % Elimination: 100%
  EPG Upon autopsy: 0
[1]; [8]
  % Elimination: 100%
  Number of remaining worms: 0
  EPG Before administration: 100
  EPG Upon autopsy: 0
[2]
  Classification by basicity, acidity or neutrality: Neutral substance
[3]; [9]
  % Elimination: 62.5% and 100% and 87.5% and 98.2%
[3]; single oral dose 5 mg/kg
  % Elimination: 100%
[3]; [10]
  Number of remaining worms: 0
[4]; 2 ppm
  time until the worms stopped moving: 25 min
[4]; 8 ppm
  time until the worms stopped moving: 15 min
[4]; 40 ppm
  time until the worms stopped moving: 10 min
[5]; single oral dose 0.2 mg/kg, 0.2 mg/kg
  % Elimination: 100% and 50.0%
[5]; [9]
  % Elimination: 100% and 80.0%
[5]; single oral dose 5 mg/kg
  % Elimination: 100%
[5]; [10]
  Number of remaining worms: 0
Ames test
  Ames test result: negative
[6]
  body weight gains and abnormalities: normal body weight gains are obtained without any abnormalities
